Laboratory results: ChEMBL document CHEMBL3259629, “Discovery and optimization of piperidyl-1,2,3-triazole ureas as potent, selective, and in vivo-active inhibitors of α/β-hydrolase domain containing 6 (ABHD6)” (J Med Chem, 2013)

Experiments:
Conditions in all cases: Neuro2a, 3 nM
[1] = target: T1, Acylamino-acid-releasing enzyme (Mus musculus) (UniProt Q8R146)
T1 sequence (whole entry): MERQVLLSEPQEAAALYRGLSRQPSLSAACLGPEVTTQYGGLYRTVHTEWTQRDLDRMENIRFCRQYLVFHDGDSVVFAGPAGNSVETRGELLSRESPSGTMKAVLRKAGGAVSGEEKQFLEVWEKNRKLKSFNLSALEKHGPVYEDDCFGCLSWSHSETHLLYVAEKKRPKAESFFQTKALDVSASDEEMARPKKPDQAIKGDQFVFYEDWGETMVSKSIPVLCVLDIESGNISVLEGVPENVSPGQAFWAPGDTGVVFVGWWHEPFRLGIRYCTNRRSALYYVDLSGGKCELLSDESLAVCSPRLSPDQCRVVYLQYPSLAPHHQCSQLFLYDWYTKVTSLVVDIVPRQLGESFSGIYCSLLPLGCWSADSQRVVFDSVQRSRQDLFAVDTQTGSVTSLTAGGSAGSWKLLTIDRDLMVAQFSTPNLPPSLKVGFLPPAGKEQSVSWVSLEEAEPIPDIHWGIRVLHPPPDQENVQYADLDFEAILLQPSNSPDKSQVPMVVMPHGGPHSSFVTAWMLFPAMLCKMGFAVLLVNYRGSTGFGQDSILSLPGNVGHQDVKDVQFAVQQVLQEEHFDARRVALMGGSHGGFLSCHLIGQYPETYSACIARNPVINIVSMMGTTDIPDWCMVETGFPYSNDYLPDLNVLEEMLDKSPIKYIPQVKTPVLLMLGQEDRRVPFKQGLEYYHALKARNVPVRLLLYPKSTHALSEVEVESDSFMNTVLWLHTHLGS
Description: Inhibition of Apeh in mouse Neuro2a cells at 3 nM after 4 hrs by ABPP-SILAC assay

[2] = target: Fatty acid synthase (Mus musculus) (UniProt P19096)
Description: Inhibition of Fasn in mouse Neuro2a cells at 3 nM after 4 hrs by ABPP-SILAC assay

[3] = target: T2, Neutral cholesterol ester hydrolase 1 (Mus musculus) (UniProt Q8BLF1)
T2 sequence (whole entry): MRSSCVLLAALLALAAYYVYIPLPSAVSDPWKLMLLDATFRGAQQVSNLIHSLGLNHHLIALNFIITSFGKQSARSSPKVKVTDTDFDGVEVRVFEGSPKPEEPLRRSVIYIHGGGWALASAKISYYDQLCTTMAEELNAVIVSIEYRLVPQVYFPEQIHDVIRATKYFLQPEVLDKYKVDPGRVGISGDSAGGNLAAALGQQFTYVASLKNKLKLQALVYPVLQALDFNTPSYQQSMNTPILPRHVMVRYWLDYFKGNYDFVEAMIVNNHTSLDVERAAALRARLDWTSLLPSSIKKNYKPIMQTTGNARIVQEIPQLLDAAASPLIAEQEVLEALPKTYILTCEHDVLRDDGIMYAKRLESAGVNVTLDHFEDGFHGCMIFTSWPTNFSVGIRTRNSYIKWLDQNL
Description: Inhibition of Aadacl1 in mouse Neuro2a cells at 3 nM after 4 hrs by ABPP-SILAC assay

[4] = target: T3, Serine hydrolase-like protein (Mus musculus) (UniProt Q9EPB5)
T3 sequence (whole entry): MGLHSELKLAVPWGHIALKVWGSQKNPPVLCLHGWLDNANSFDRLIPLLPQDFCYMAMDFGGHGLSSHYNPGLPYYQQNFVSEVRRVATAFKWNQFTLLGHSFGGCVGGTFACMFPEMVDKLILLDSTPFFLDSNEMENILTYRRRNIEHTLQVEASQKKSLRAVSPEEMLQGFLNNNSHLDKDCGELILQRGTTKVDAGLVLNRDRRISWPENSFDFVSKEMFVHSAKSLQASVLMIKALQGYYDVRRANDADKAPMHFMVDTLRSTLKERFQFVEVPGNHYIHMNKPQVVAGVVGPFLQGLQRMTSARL
Description: Inhibition of Serhl in mouse Neuro2a cells at 3 nM after 4 hrs by ABPP-SILAC assay

[5] = target: T4, Acyl-coenzyme A thioesterase 2, mitochondrial (Mus musculus) (UniProt Q9QYR9)
T4 sequence (whole entry): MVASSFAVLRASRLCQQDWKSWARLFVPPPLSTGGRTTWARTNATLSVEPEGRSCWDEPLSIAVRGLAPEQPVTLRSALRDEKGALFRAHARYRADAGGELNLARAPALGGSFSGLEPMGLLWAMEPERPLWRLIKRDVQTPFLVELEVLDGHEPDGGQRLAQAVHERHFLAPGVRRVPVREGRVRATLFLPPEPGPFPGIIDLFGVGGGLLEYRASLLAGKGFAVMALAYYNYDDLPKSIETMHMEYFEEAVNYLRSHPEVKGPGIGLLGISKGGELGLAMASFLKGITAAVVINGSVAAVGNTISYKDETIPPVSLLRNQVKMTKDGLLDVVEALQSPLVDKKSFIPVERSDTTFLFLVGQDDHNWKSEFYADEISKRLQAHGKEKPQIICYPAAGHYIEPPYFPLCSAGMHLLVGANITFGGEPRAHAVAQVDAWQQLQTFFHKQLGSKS
Description: Inhibition of Acot2 in mouse Neuro2a cells at 3 nM after 4 hrs by ABPP-SILAC assay

[6] = target: T5, Serine beta-lactamase-like protein LACTB, mitochondrial (Mus musculus) (UniProt Q9EP89)
T5 sequence (whole entry): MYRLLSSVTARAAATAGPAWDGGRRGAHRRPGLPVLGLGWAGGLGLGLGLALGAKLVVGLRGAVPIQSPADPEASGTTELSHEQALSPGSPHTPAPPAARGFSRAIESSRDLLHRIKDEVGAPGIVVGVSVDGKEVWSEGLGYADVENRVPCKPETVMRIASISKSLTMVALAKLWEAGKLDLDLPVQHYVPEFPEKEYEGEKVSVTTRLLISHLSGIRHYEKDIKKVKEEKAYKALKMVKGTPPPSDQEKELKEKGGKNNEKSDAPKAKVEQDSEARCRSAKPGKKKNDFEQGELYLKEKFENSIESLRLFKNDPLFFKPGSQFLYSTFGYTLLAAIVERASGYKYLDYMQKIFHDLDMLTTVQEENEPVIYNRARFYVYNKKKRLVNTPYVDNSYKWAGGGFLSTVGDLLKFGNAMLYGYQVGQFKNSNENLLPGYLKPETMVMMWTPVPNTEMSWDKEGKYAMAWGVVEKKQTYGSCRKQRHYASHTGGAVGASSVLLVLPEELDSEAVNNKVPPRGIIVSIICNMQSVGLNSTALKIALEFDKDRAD
Description: Inhibition of Lactb in mouse Neuro2a cells at 3 nM after 4 hrs by ABPP-SILAC assay

Measured: inhibition

Chain of Fatty acid synthase (Mus musculus) (P19096 whole entry): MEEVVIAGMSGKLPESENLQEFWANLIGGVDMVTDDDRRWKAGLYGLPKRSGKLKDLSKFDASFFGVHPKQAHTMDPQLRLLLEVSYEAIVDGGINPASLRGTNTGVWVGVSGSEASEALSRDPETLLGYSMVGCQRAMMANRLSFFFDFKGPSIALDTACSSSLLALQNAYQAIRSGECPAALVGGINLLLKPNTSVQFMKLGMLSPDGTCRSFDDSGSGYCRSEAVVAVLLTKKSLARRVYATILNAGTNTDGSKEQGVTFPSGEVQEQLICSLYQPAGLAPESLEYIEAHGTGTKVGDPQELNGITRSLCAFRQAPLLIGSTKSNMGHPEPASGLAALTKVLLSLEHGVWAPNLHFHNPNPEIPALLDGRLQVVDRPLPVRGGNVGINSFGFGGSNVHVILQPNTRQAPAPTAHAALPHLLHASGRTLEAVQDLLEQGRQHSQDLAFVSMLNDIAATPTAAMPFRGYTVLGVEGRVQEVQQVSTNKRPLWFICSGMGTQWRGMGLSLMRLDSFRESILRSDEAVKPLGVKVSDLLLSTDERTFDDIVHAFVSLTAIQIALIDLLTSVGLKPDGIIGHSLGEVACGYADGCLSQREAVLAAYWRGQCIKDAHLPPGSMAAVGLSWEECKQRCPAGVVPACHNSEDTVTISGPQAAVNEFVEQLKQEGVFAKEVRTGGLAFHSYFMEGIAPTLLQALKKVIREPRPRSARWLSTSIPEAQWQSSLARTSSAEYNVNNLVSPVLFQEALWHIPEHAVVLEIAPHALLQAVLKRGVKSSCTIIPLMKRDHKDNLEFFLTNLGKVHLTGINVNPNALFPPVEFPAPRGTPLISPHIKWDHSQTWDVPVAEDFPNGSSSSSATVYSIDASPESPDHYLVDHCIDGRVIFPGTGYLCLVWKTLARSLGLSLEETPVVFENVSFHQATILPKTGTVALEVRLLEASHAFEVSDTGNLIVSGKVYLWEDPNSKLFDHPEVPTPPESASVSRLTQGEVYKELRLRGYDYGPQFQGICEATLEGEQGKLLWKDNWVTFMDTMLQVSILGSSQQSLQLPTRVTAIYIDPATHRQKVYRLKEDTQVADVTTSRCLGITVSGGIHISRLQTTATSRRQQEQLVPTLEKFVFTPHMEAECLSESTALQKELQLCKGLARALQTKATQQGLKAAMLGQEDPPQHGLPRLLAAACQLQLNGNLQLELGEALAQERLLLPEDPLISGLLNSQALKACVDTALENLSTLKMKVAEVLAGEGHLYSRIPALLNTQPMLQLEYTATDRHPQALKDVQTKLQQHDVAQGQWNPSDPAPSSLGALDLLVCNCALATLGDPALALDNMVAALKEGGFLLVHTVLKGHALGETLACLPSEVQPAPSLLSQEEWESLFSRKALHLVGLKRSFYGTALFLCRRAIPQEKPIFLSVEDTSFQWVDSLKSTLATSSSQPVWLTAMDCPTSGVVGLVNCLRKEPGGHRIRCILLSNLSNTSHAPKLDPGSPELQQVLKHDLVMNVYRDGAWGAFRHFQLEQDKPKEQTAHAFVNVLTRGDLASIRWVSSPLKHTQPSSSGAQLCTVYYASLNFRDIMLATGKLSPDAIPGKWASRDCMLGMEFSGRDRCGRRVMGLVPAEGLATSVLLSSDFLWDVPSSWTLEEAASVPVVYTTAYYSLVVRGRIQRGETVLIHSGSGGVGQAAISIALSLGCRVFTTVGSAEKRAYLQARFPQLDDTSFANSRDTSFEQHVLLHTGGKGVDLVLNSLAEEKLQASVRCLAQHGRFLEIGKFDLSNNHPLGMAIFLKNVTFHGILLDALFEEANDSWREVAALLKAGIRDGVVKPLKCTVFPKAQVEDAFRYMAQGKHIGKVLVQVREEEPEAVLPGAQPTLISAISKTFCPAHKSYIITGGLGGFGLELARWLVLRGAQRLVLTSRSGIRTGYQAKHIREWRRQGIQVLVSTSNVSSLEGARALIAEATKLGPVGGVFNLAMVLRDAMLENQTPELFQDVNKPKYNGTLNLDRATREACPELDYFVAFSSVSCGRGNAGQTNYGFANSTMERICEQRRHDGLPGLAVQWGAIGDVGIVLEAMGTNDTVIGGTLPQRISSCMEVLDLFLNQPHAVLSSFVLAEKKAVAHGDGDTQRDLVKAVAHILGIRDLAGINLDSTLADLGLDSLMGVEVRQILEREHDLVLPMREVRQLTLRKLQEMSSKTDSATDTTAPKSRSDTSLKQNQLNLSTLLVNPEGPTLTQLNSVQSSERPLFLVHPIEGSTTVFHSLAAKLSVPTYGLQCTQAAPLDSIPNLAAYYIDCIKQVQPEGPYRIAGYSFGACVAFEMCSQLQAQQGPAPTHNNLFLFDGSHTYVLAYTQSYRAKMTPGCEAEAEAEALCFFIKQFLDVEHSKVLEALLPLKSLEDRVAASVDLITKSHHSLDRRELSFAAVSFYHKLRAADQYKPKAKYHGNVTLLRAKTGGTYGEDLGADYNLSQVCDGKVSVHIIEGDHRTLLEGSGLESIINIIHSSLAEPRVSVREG

O=C(N1CCCCC1c1ccccc1)n1cc(-c2ccc(-c3cccc(CO)c3)cc2)nn1 (racemic)
< 50%: all assays above

O=C(c1cccc(-c2ccc(-c3cn(C(=O)N4CCCCC4c4ccccc4)nn3)cc2)c1)N1CCCCC1 (racemic)
< 50%: all assays above

O=C(O)c1cccc(-c2ccc(-c3cn(C(=O)N4CCCCC4Cc4ccccc4)nn3)cc2)c1 (racemic)
< 50%: all assays above
